Data set [1] concerns adult Musca domestica, strain: Reichswald (OP, SP, carbamate resistant). Kind of data set: Test with flies (Musca domestica) (Example H). The class given is in vivo. The method, then:
Test with Flies (Musca domestica)
(§1) 20 mg of active substance are dissolved in 1 ml of dimethyl sulphoxide; lower concentrations are prepared by dilution with distilled water.
[…] After the filter disks have dried, 25 test organisms are transferred to the Petri dishes and covered.
The activity of the active compound preparation is determined after 1, 3, 5, 24 and 48 hours. 100% means that all the flies were killed; 0% means that none of the flies was killed.

Data set [2] deals with larvae of the mustard beetle (Phaedon cochleariae). The experiment in a line: Phaedon larvae test (Example B). The class given is in vivo. The conditions noted are these: 1000 ppm, after 7 days, cabbage leaves dipped. The method, then:
(§2) Phaedon larvae Test [table] To produce a suitable preparation of active compound, 1 part by weight of active compound is mixed with the stated amounts of solvent and emulsifier, and the concentrate is diluted with emulsifier-containing water to the desired concentration. Cabbage leaves (Brassica oleracea) are treated by being dipped into the preparation of active compound at the desired concentration and are populated with larvae of the mustard beetle (Phaedon cochleariae) while the leaves are still moist. After the desired period of time, the kill in % is determined. 100% means that all of the beetle larvae have been killed: 0% denotes that no beetle larvae have been killed.

A further data set has as its system Lucilia cuprina larvae. Kind of data set: Blowfly larvae test/development inhibition activity (Example I). The following applies: 100% = no flies hatched. The class given is in vivo. The method, then: Blowfly Larvae Test/Development Inhibition Activity
as §1
About 20 Lucilia cuprina larvae are introduced into a test tube containing 1 cm^3 of horse meat and 0.5 ml of the test preparation of active compound. The efficacy of the active compound preparation is determined after 24 and 48 hours. The test tubes are transferred to beakers whose bases are covered with sand. After 2 more days, the test tubes are removed and the pupae are counted.
The activity of the active compound preparation is assessed in accordance with the number of flies which have hatched following 1.5 times the development period of an untreated control. 100% means that no flies have hatched; 0% means that all of the flies hatched normally.

The test system of data set [3] is caterpillars of the army worm (Spodoptera frugiperda). The experiment in a line: Spodoptera frugiperda test (Example E). The class given is in vivo. The following applies: 1000 ppm, after 7 days, cabbage leaves dipped. As to the method: as §2, with “Spodoptera frugiperda” for “Phaedon larvae”, “caterpillars” for “larvae”, “army worm (Spodoptera frugiperda)” for “mustard beetle (Phaedon cochleariae)”, “caterpillars” for “beetle larvae”

The mark [4] stands for this setting: Concentration 20 μg fly, reading time not given.
The mark [5] stands for this setting: Concentration 100 μg fly, reading time not stated (1, 3, 5, 24 and 48 hours in method).

The source of these data is US20050150764A1 (priority 2001, published 2005).

As for `O=C(Nc1ccc(Cl)cc1)N1CCC(n2cc(Cl)cn2)C(c2cccc(C(F)(F)F)c2)=N1` (centres unmarked) [Example 2], the “logP (pH 2)/ m.p. [° C.] (logP part)” value is 4.60/199. In data set [1] (Concentration 4 μg fly, reading time not given), the “% Activity/Kill” value came out at 0%. For the same compound, the “% Activity/Kill” value in data set [1] (setting [4]) worked out at 30%. Moreover, the “% Activity/Kill” value in data set [1] (setting [5]) was 95%. The kill in data set [2] amounted to 100%. Further, the “% Activity/Kill” value in the data set on Lucilia cuprina larvae (Concentration 4 ppm) stood at 0%. Moreover, in the data set with Lucilia cuprina larvae (Concentration 20 ppm), the “% Activity/Kill” value turned out to be 100%. Besides, in the data set with Lucilia cuprina larvae (Concentration 100 ppm), the “% Activity/Kill” value is on record as 100%. In data set [3], this compound returned a kill of 100%.
Consider `O=C(Nc1ccc(C(F)(F)F)cc1)N1CCC(n2cc(Cl)cn2)C(c2cccc(F)c2)=N1` (centres unmarked) [Example 4], for which the “logP (pH 2)/ m.p. [° C.] (logP part)” value was 4.37/194. The same compound gave a kill in data set [2] of 100%. Moreover, in data set [3], the kill came out at 100%.
Turning to `O=C(Nc1ccc(Cl)cc1)N1CCC(n2cc(Cl)cn2)C(c2cccc(F)c2)=N1` (centres unmarked) [Example 5], the “logP (pH 2)/ m.p. [° C.] (logP part)” value is 4.18/213. In data set [2], this compound showed a kill of 100%. In addition, the “% Activity/Kill” value with Lucilia cuprina larvae (Concentration 20 ppm) turned out to be 0%. The “% Activity/Kill” value in the data set with Lucilia cuprina larvae (Concentration 100 ppm) amounted to 100%. The compound also had a kill in data set [3] of 100%.
In the case of `O=C(Nc1ccc(Cl)cc1)N1CCC(n2cc(Cl)cn2)C(c2cccc(Cl)c2)=N1` (centres unmarked) [Example 8], the “logP (pH 2)/ m.p. [° C.] (logP part)” value is listed as 4.49/203. Further, the kill in data set [2] was determined as 100%. Further, in data set [3], the kill is 100%.
Regarding `O=C(Nc1ccc(Cl)cc1)N1CCC(n2cc(Cl)cn2)C(c2cccc(OC(F)(F)F)c2)=N1` (centres unmarked) [Example 10], the “logP (pH 2)/ m.p. [° C.] (logP part)” value is given as 4.73/158. This compound also came in with a kill in data set [2] of 100%. The compound also displayed a kill in data set [3] of 100%.
With `O=C(Nc1ccc(Cl)cc1)N1CCC(n2cc(Cl)cn2)C(c2cccc(Br)c2)=N1` (centres unmarked) [Example 11], the “logP (pH 2)/ m.p. [° C.] (logP part)” value was 4.58/198. Further, the kill in data set [2] is reported as 100%. This compound displayed a kill in data set [3] of 100%.
As for `O=C(Nc1ccc(OC(F)(F)F)cc1)N1CCC(n2cc(Cl)cn2)C(c2cccc(Br)c2)=N1` (centres unmarked) [Example 12], the “logP (pH 2)/ m.p. [° C.] (logP part)” value is recorded as 4.82/197. In data set [2], this compound had a kill of 100%. Also, the kill in data set [3] was 100%.
As for `N#Cc1cccc(C2=NN(C(=O)Nc3ccc(C(F)(F)F)cc3)CCC2n2cc(Cl)cn2)c1` (centres unmarked) [Example 16], the “logP (pH 2)/ m.p. [° C.] (logP part)” value was 4.03/229. This compound returned a kill in data set [2] of 100%. In data set [3], this compound returned a kill of 100%.
As to `N#Cc1cnn(C2CCN(C(=O)Nc3ccc(Cl)cc3)N=C2c2cccc(Cl)c2)c1` (centres unmarked) [Example 18], the “logP (pH 2)/ m.p. [° C.] (logP part)” value is reported as 3.90/228.
`N#Cc1cnn(C2CCN(C(=O)Nc3ccc(OC(F)(F)F)cc3)N=C2c2cccc(Cl)c2)c1` (centres unmarked) [Example 19]: the “logP (pH 2)/ m.p. [° C.] (logP part)” value is on record as 4.15/186.
The same measure, in the same setting: in the case of `N#Cc1ccc(NC(=O)N2CCC(n3cc(Cl)cn3)C(c3cccc(Cl)c3)=N2)cc1` (centres unmarked) [Example 20] it was 3.77; in that of `N#Cc1cnn(C2CCN(C(=O)Nc3ccc(SC(F)(F)F)cc3)N=C2c2cccc(Cl)c2)c1` (centres unmarked) [Example 21], 4.53/194; in that of `N#Cc1cnn(C2CCN(C(=O)Nc3ccc(Cl)cc3)N=C2c2cccc(Br)c2)c1` (centres unmarked) [Example 22], 3.96/213.
Consider `O=C(Nc1ccc(SC(F)(F)F)cc1)N1CCC(n2cc(Cl)cn2)C(c2cccc(C(F)(F)F)c2)=N1` (centres unmarked) [Example 23], for which the “logP (pH 2)/ m.p. [° C.] (logP part)” value is listed as 5.21/188. Further, in data set [1] (setting [4]), the “% Activity/Kill” value turned out to be 0%. Moreover, the “% Activity/Kill” value in data set [1] (setting [5]) is listed as 90%. Further, the “% Activity/Kill” value in the data set on Lucilia cuprina larvae (Concentration 20 ppm) was 0%. The “% Activity/Kill” value with Lucilia cuprina larvae (Concentration 100 ppm) came out at 100%.
`N#Cc1cnn(C2CCN(C(=O)Nc3ccc(SC(F)(F)F)cc3)N=C2c2cccc(Br)c2)c1` (centres unmarked) [Example 24]: the “logP (pH 2)/ m.p. [° C.] (logP part)” value was 4.64/206.
As for `N#Cc1cnn(C2CCN(C(=O)Nc3ccc(OC(F)(F)F)cc3)N=C2c2cccc(Br)c2)c1` (centres unmarked) [Example 25], the “logP (pH 2)/ m.p. [° C.] (logP part)” value is on record as 4.24/192.
Still for that read-out and setting: the same measure for `N#Cc1cccc(C2=NN(C(=O)Nc3ccc(SC(F)(F)F)cc3)CCC2n2cc(C#N)cn2)c1` (centres unmarked) [Example 26]: 3.94/242.
With `N#Cc1cnn(C2CCN(C(=O)Nc3ccc(C(F)(F)F)cc3)N=C2c2cccc(Br)c2)c1` (centres unmarked) [Example 27], the “logP (pH 2)/ m.p. [° C.] (logP part)” value was 4.18/244.
Turning to `N#Cc1cnn(C2CCN(C(=O)Nc3ccc(Br)cc3)N=C2c2cccc(Cl)c2)c1` (centres unmarked) [Example 28], the “logP (pH 2)/ m.p. [° C.] (logP part)” value is given as 4.03.
Still for that read-out and setting: the same measure for `N#Cc1cccc(C2=NN(C(=O)Nc3ccc(OC(F)(F)F)cc3)CCC2n2cc(C#N)cn2)c1` (centres unmarked) [Example 29]: 3.62/239.
As to `O=C(c1cccc(F)c1)C(Br)CCCl` (centres unmarked) [Example V-2], the “logP (pH 2)” value was 3.47.
Consider `O=C(c1cccc(OC(F)(F)F)c1)C(Br)CCCl` (centres unmarked) [Example V-3], for which the “logP (pH 2)” value was 4.19.
Regarding `O=C(c1cccc(Br)c1)C(Br)CCCl` (centres unmarked) [Example V-4], the “logP (pH 2)” value is on record as 4.02.
Regarding `FC(F)(F)c1cccc(C2=NNCCC2n2cc(Cl)cn2)c1` (centres unmarked) [II-2], the “logP (pH 2)” value worked out at 3.09.
For `Fc1cccc(C2=NNCCC2n2cc(Cl)cn2)c1` (centres unmarked) [II-3], the “logP (pH 2)” value was determined as 2.59.
Still for that read-out and setting: the same measure for `Clc1cccc(C2=NNCCC2n2cc(Cl)cn2)c1` (centres unmarked) [II-4]: 2.93; for `FC(F)(F)Oc1cccc(C2=NNCCC2n2cc(Cl)cn2)c1` (centres unmarked) [II-5]: 3.32; for `Clc1cnn(C2CCNN=C2c2cccc(Br)c2)c1` (centres unmarked) [II-6]: 3.03.
In the case of `N#Cc1cnn(C2CCNN=C2c2cccc(Cl)c2)c1` (centres unmarked) [II-7], the “logP (pH 2)” value stood at 2.40.
Take `N#Cc1cnn(C2CCNN=C2c2cccc(Br)c2)c1` (centres unmarked) [II-8]: the “logP (pH 2)” value worked out at 2.49.
The same measure, in the same setting: in the case of `N#Cc1cccc(C2=NNCCC2n2cc(C#N)cn2)c1` (centres unmarked) [II-9] it was 1.83.
On the same count and under the same terms, the same measure for `O=C(c1cccc(C(F)(F)F)c1)C(CCCl)n1cc(Cl)cn1` (centres unmarked) [IV-2]: 3.84; for `O=C(c1cccc(F)c1)C(CCCl)n1cc(Cl)cn1` (centres unmarked) [IV-3]: 3.31; for `O=C(c1cccc(Cl)c1)C(CCCl)n1cc(Cl)cn1` (centres unmarked) [IV-4]: 3.68.
Consider `O=C(c1cccc(OC(F)(F)F)c1)C(CCCl)n1cc(Cl)cn1` (centres unmarked) [IV-5], for which the “logP (pH 2)” value stood at 3.99.
Regarding `O=C(c1cccc(Br)c1)C(CCCl)n1cc(Cl)cn1` (centres unmarked) [IV-6], the “logP (pH 2)” value stood at 3.78.
With `N#Cc1cnn(C(CCCl)C(=O)c2cccc(Cl)c2)c1` (centres unmarked) [IV-7], the “logP (pH 2)” value was 3.06.
Same read-out and setting: in the case of `N#Cc1cnn(C(CCCl)C(=O)c2cccc(Br)c2)c1` (centres unmarked) [IV-8] it was 3.13; in that of `N#Cc1cccc(C(=O)C(CCCl)n2cc(C#N)cn2)c1` (centres unmarked) [IV-9], 2.41.
For the compound `O=C(CCCCl)c1cccc(OC(F)(F)F)c1` [VI-2], the “logP (pH 2)” value came to 3.71.
Still for that read-out and setting: the same measure for `O=C(CCCCl)c1cccc(Br)c1` [VI-3]: 3.50.
Same read-out and setting: in the case of `O=C1OCCC1C(=O)c1cccc(OC(F)(F)F)c1` (centres unmarked) [VIIa-4] it was 2.59; in that of `O=C1OCCC1C(=O)c1cccc(Br)c1` (centres unmarked) [Vlla-5], 2.22.
